According to patent US8394971B2, “Indole derivatives as selective androgen receptor modulators (SARMS)” (Janssen Pharmaceutica N.V., priority 2004, dated 2013):

Columns and labels:
[1] = target: T1, androgen receptor (rat ventral prostate cytosol) (Rattus norvegicus, UniProt P15207); test: Androgen Receptor Binding Using Rat Ventral Prostate Cytosol; details: rat cytosol; for IC50: read-out: IC50
T1 construct: from tissue; host or cells: ventral prostate of castrated male Sprague Dawley or Wistar rats, cytosol
T1 sequence (P15207 1-902): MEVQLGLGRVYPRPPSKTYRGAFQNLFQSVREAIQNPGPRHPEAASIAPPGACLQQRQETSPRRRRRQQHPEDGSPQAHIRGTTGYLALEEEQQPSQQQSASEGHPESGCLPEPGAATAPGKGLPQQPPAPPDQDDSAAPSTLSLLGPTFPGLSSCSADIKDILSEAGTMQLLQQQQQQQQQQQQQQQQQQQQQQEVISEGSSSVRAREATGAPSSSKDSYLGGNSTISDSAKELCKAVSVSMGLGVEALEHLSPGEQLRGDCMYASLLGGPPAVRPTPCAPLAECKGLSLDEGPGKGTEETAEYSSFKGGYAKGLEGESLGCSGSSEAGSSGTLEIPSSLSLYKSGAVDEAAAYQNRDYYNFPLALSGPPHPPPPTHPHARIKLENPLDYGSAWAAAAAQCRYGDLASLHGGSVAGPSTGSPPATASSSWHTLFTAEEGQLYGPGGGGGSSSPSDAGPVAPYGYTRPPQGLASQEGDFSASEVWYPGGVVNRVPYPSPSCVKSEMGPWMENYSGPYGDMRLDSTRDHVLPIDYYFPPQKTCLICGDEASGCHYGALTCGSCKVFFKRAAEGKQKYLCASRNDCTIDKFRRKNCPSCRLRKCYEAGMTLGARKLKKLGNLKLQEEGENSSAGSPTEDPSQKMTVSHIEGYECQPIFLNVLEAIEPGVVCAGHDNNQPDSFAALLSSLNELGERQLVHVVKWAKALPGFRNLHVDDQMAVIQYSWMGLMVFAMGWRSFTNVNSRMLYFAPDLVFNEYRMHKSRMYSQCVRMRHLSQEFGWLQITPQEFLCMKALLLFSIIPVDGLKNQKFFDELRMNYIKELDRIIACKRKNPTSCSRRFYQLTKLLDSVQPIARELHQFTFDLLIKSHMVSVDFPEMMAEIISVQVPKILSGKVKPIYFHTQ
Experimental: The assay was run on a 96 well plate with each well filled with a total reaction volume 150 μL, of a solution containing 5 pmol androgen receptor LBD (Panvera) or 30 μL of freshly prepared rat cytosol, 0.5 nM [^3H] […] (TED buffer contains 10 mM Tris.HCl pH 7.4, 1 mM sodium molybdate, 1.5 mM EDTA, 1 mM DTT and 10% (v/v) glycerol.)
On day one, the solution containing receptor, tracer and TED buffer was distributed into a 96 well plate. Diluted test compound or control vehicle was then added to individual wells and the plate incubated at 4° C. overnight.
On day two, to each well was then added 20 μL human γ-globulin (ICN 823102), prepared at 25 mg/ml in TE pH 8.0, and 55 μL 40% polyethylene glycol 8000 (JT Baker U222-08), prepared in TE pH 8.0. The plate was incubated at 4° C. for 60 minutes. During incubation, the harvester was rinsed with 10% PEG 8000, prepared in TE pH 8.0, and a GF/C Unifilter-96 was pre-wet with 10% PEG. The binding reaction was filtered, the retentate was washed three times with 10% PEG and dried under vacuum for a couple of minutes, then dried at 50° C. for 5 min and the plate was bottom sealed. Next, 25 μL of Microscint-20 (Packard) was added to the filter wells and the plate was top sealed. The plate wells were then counted on a TopCount (Packard).
Rat Prostate Cytosol Preparation:
Male Sprague Dawley or Wistar rats (Charles River, 200-300 g) were used for each preparation. The day before preparing the cytosol, the rats were castrated using standard surgical procedures.
The rats were euthanized by carbon dioxide asphyxiation. The rat prostates were quickly removed and placed on ice in pre-chilled, pre-weighed 50 mL plastic tubes. No more than five prostates were placed into one tube. The tubes were then weighed and the prostate tissue wet weights calculated.
To the chilled prostate tissue was then added […] of chilled homogenization buffer. The homogenization buffer was freshly prepared by mixing 10 mM Tris.HCl, pH 7.4, 1 mM sodium molybdate, 1.5 mM EDTA, 1 mM dithiothreitol, 10% (v/v) glycerol and 1% protease inhibitor cocktail (Sigma P 8340).
The prostate tissue was homogenized in a cold room using a pre-chilled Polytron PT3000 homogenizer (Brinkmann). Homogenization was performed at a speed setting of 20, three times for 10 sec bursts. The tubes containing the prostate tissue was kept on ice while homogenizing. The homogenate was allowed to rest on ice for 20 sec between bursts.
The homogenate was then placed into pre-chilled 3 mL polycarbonate ultracentrifuge tubes and centrifuged in the TLA-100 rotor of a TL-100 ultracentrifuge for 12 min at 100,000 rpm at 4° C. The resulting supernatant was stored in 1 mL aliquots at −80° C. until needed.
Binding to the androgen receptor was determined according to the protocol described in Example 86 using the above prepared rat cytosol.
% Inhibition was determined by testing dilutions of the test compound (usually duplicates of 10 μM) in the binding assay. Counts per well were measured and percents of inhibition determined. […] Counts per well were measured and IC50s determined by linear regression.

[2] = target: T2, androgen receptor (adenovirus AdEasy+rAR in L929 cells) (Rattus norvegicus, UniProt P15207); test: L929 Androgen Receptor Functional Assay, Adenovirus Transduction; assay type: cell-based; details: L929 agonist testing; 3000 nM
T2 construct: expressed in transfected cells
T2 sequence (P15207 1-902): T1 sequence (P15207 1-902)
Procedure, shortened: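 Luminescent reporter readout after 48 h at 37 °C: rat AR delivered by adenovirus (AdEasy+rAR, moi 1:500) into L929 cells grown without phenol red in charcoal-treated serum. Antagonist wells also received R1881 (2.5× dilution at 2.5 nM).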

[3] = tested on: testosterone-enhanced ventral prostate and seminal vesicle weights in castrated male Sprague Dawley rats; test: Ventral Prostate and Seminal Vesicle Weight In Vivo Assay; design: species or system rat; details: immature castrated rats; once daily for five days, usually orally at 40 mg/kg, with testosterone propionate 2 mg/kg s.c.
Procedure, shortened: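 Immature (~50 g) castrated Sprague Dawley rats dosed once daily for five days with compound (usually oral, 40 mg/kg, cyclodextrin or methylcellulose vehicle) plus testosterone propionate 2 mg/kg s.c. Wet ventral prostate and seminal vesicle weights taken on day six; activity judged by prostate weight or body-weight-adjusted % inhibition.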

| SMILES | inhibition at 1 µM ([1]; concentration 1000 nM) | IC50 [1] | further results |
| --- | --- | --- | --- |
| OC1(c2cc3cc(Cl)c(C(F)(F)F)cc3[nH]2)CCN(Cc2ccc(C(F)(F)F)cc2)CC1 [Compound #33] | 11% | 29 µM |  |
| CC(O)(CS(=O)(=O)Cc1ccccc1)c1cc2cc([N+](=O)[O-])c(C(F)(F)F)cc2[nH]1 (racemic) [compound 162] |  |  | % Activity [2]: 2%; % Inhibition ([1]; concentration 3000 nM): 0.69%; active / inactive (inhibition of testosterone-enhanced prostate weight) [3]: inactive |
| COc1cccc(CN2CCC(O)(c3cc4cc(Cl)c(C(F)(F)F)cc4[nH]3)CC2)c1 [compound 29] | -1.8% | 4.7 µM |  |
| CC(C)SC(C)(CO)c1cc2cc([N+](=O)[O-])c(C(F)(F)F)cc2[nH]1 (racemic) [compound 268] |  |  | % Activity [2]: 9%; % Inhibition ([1]; concentration 3000 nM): −3.3%; active / inactive (inhibition of testosterone-enhanced prostate weight) [3]: inactive |
| COc1cccc(CN2CCC(O)(c3cc4cc([N+](=O)[O-])c(C(F)(F)F)cc4[nH]3)CC2)c1 [compound 38] |  | 8.8 µM | % Inhibition ([1]; concentration 1000 nM, 1 µM): 16% |
| Cc1ccc(CN2CCC(O)(c3cc4cc([N+](=O)[O-])c(C(F)(F)F)cc4[nH]3)CC2)cc1 [compound 27] |  | 3.1 µM |  |
| COc1cccc(CN2CCC(O)(c3cc4cc([N+](=O)[O-])c(C(F)(F)F)cc4[nH]3)CC2)c1 [compound 39] |  | > 6.1 µM | % Inhibition ([1]; concentration 1000 nM, 1 µM): 6% |
| CS(=O)(=O)c1ccc(CN2CCC(O)(c3cc4cc(Cl)c(C(F)(F)F)cc4[nH]3)CC2)cc1 [compound 34] | 18% | 5.7 µM |  |
| COc1ccc(CN2CCC(O)(c3cc4cc(Cl)c(C(F)(F)F)cc4[nH]3)CC2)cc1 [compound 35] | -19% | 4.2 µM |  |
| OC1(c2cc3cc(Cl)c(C(F)(F)F)cc3[nH]2)CCN(Cc2ccc(F)cc2)CC1 [compound 28] | -3.4% | 7 µM |  |
| O=[N+]([O-])c1cc2cc(C3(O)CCN(Cc4ccc(Cl)c(Cl)c4)CC3)[nH]c2cc1C(F)(F)F [compound 43] | 5.8% | 9.1 µM |  |
| Cc1ccc(CN2CCC(O)(c3cc4cc(Cl)c(C(F)(F)F)cc4[nH]3)CC2)cc1 [compound 30] | -7.7% | 4.1 µM |  |
| CC(O)(c1cc2cc([N+](=O)[O-])c(C(F)(F)F)cc2[nH]1)S(=O)(=O)c1ccc(Cl)c(Cl)c1 (racemic) [compound 255] |  |  | % Inhibition ([1]; concentration 1000 nM): 26% |
| CS(=O)(=O)n1c(C2(O)CCN(C(=O)c3ccc(Cl)cc3)CC2)cc2cc(Cl)c(C(F)(F)F)cc21 [compound 24] |  |  | % Inhibition ([1]; concentration 1000 nM): 2% |
| CC(C)(C)c1ccc(CN2CCC(O)(c3cc4cc(Cl)c(C(F)(F)F)cc4[nH]3)CC2)cc1 [Compound #32] | 34% | 43 µM |  |
